“Also recorded” adds a separate entry of the source.
Key:
[1] = system: synaptosomal striatal (^3 H)DA capture; assay: Inhibition test of the synaptosomal striatal sample (capture) of (^3 H)DA; type: biochemical, Wistar rats; details: for IC50: rat striatal synaptosomes, 5 nM (^3 H)DA, 5 min at 30° C., pH 7.4, read-out: ^3 HDA IC50; for ^3 HDA/^3 H-TCP: ratio of IC50
Method: This test is carried out according to the method used by Vignon and Lazdunski operating in the following way. Wistar rats weighing 200 to 250 g are killed by cervical dislocation. Their brains are rapidly removed and the striae dissected on ice. The striae are then homogenized with a Teflon glass Potter homogenizer in 50 volumes of tris HCl 10 mM buffer containing 0.32M of sucrose at pH 7.4 and they are centrifuged at 1000 g for 10 min. The supernatants are further centrifuged at 10000 g for 20 min. The resulting deposits P2 containing the crude synaptosomes are used without supplementary purification.
The synaptosomes are balanced with the compound to be tested for 30 min at 30° C. in the Ringer medium (mM: 140 NaCl, 5 KCl, 2.6 CaCl2, 1.3 MgSO4, 10 tris-HCl, pH=7.4)+200 μM of pargyline. This is followed by the addition of (^3 H)DA labelled dopamine at a final concentration of 5 nM for 5 min at 30° C. and sampling is interrupted by filtration of the incubate (150 μl) on GF/B filters. The non-specific sample is measured at 4° C. in parallel incubations and is deducted from the total sample at 30° C. The IC50 is the compound concentration preventing 50% of the specific capture compared with the control in the absence of an inhibitor.

Swiss mice = assay: Simple rotary bar test (dose at which 50% of the animals drop); type: in vivo; details: Mus musculus, sc; Swiss mice, subcutaneous, dose at which 50% of the animals drop; read-out: ED50
Method: In this example, the properties of compounds 1 to 5 and 8 to 11 are tested on Swiss mice.
Different doses of the compounds to be tested are administered subcutaneously to the mice and the latter are then placed in batches of 10 on a rotary bar, being separated from one another by separating disks. This bar is made from scraped wood, has a diameter of 3 cm and is moved horizontally with a uniform circular movement about its axis at a speed of 10 rpm.
Determination takes place of the ED50, which is the dose at which 50% of the animals drop, the dose being expressed in mg/kg.

Purkinje cells = assay: Cerebral aging in mice, histology of the cerebellum; type: in vivo
Method: (§1) This example illustrates the effect of arylcyclohexylamines on cerebral aging. No matter what the cause of the cerebral aging (vascular or degenerative), it leads to a neuronal loss at the cerebral cortex, the hippocampas and to a lesser extent the cerebellum. This cellular loss can be quantified by simple histological methods and evaluated on a larger scale by means of semi-automatic image analysis methods.
(§2) In this example 6 mice aged 23 months by intraperitonealy injecting 3 of them with 5 mg/kg of TCP in the physiological solute at the 23rd, 24th and 25th months and 3 other mice were intraperitonealy injected with the physiological solute only. At the 26th month, all the mice were sacrificed by intracardial perfusion of a 5% glutaraldehyde solution, the brains were cut up with the vibratone and the sections dyed by the NISSL method.
(§3) The results obtained are given in FIGS. 2 to 5, which are sections of the brain and the cerebellum of the treated mice and the untreated control mice.

[2] = target: cerebral cholinergic muscarinic receptor; type: binding, rat; details: for IC50: rat brain homogenate, read-out: ^3 HQNB IC50; for ^3 HQNB/^3 HTCP: ratio of IC50
[3] = system: cortical and hippocampal neurons; assay: In vitro neuron culture survival after 2 months, count of neurons (Example 23); type: cell-based, rat; details: for number of neurons which survived after 2 months culturing: single dose at start of third week, TCP 2.5 and 20, compound 9 and MK801 2.5 and 5 μmole/l, control 50 neurons/mm^2
Method: This example also illustrates the effect of the arylcyclohexylamines according to the invention on the in vitro neuron culture survival. As in example 21, cortical and hippocampal neuron cultures are prepared. At the start of the third culturing week, the cells are treated with a single dose of the compound to be tested and culturing is continued for two months. At the end of this period, the cells which were fixed and dyed to reveal the specific enolase of the neurons are subject to counts in order to determine the quantity of cells per surface unit.
The results obtained are given in FIG. 1, which is a histogram indicating the number of cells/mm^2 which survived after 2 months culturing.
The results are given for the control, i.e. for untreated cultures, cultures treated with 2.5 and 20 μmole/l of TCP, cultures treated by compound no. 9 at concentrations of 2.5 and 5 μmole/l and cultures treated by compound MK801 at concentrations of 2.5 and 5 μmole/l. Compound MK801, which is known to have a neuroprotection activity, is (+)-methyl-5-dihydro-10,11(5H)dibenzo(A,D) cyclohepteneimine-5,10 of formula: [drawing 38] From FIG. 1 it can be seen that the control cultures, after surviving for 2 months, on average contain 50 neurons/mm^2. The treated cultures, no matter what the compound and dose used, contain more than 500 neurons/mm^2.

receptor of the opiates = target: T1, receptor of the opiates (Rattus norvegicus, UniProt P33535); assay: Competition test with ^3 H-DHM for the receptor of the opiates; type: binding; details: for IC50: rat brain homogenate, read-out: ^3 HDHM IC50
T1 construct: variable concentrations of the tested compound and a rat brain homogenate; from tissue; host or cells: rat brain homogenate
T1 sequence (P33535 whole entry): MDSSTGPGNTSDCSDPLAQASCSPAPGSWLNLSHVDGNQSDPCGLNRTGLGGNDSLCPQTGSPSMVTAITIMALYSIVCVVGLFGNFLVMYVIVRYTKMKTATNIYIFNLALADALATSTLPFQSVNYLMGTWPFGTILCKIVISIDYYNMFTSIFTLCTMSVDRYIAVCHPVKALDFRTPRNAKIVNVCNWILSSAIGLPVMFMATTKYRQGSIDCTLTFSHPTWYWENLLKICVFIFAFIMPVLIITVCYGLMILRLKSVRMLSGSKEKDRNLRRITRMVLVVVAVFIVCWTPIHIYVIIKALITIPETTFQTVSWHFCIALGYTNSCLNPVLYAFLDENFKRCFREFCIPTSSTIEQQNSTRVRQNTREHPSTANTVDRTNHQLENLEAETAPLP
Method: In this test, a fixed concentration of ^3 H-DHM labelled morphine was incubated in the presence of variable concentrations of the tested compound and a rat brain homogenate. The concentration of the compound preventing the fixing of 50% of ^3 H-DHM (IC50) is a measure of the affinity of the compound for the receptor of the opiates. The latter also gives the results obtained with PCP and TCP, as well as the ratios H^3 DA/^3 H-TCP, ^3 HQNB/^3 H-TCP and ^3 HDHM/^3 HTCP obtained with the different tested compounds.

site of PCP = assay: Affinity for the PCP site, competition with (^3 H)PCP on rat brain homogenates; type: binding; details: rat brain homogenate, pH 7.7, 25° C., 1 nmole tritiated ligand
cortical cells = assay: Protection of cortical cells in vitro against acute glutamate damage; type: cell-based, rat; design: key: ++: severe damage; +: partial protection; -: no damage; details: 24 h after 5 min exposure to glutamate
Method: (§4) This example illustrates the effect of the arylcyclohexylamines according to the invention on in vitro cultures of rat brain cells as a neuroprotector against acute attacks caused by the presence of glutamate.
(§5) Cortical and hippocampal neuron cultures were prepared from the fetuses of rats aged from 17 to 18 days. The hemispheres or hippocampi are dissected and immersed in a buffer containing EDTA (Versene) for 10 min. The tissues are then mechanically dissociated in a saline PUCK solution free from calcium and magnesium and centrifuged at 70 g for 10 min. The centrifuging deposit is resuspended in a culture medium constituted by 60% of the minimum essential Eagle medium (MEM), 25% of a saline Hank solution, 5% of human serum, 5% of calf foetus serum, 5% of embryo extract and which are complemented with 6% glucose. The cells are introduced at a density of 10^6 cells per ml into 24 Wells previously coated with polylysine D. The cultures are allowed to grow for 3 weeks, […] of the culture medium being renewed every 3 days. The test is carried out in the following way. Glutamate dissolved in 10 μl of MEM is added to the medium in order to obtain a final glutamate concentration of 5·10^-4 M. After exposure for 5 min, the medium is changed. For studying the antagonist derivatives of the glutamate, to the culture medium is added the compound to be test in 10 μl of MEM in order to obtain a final concentration of compound of 200, 20 or 0.2·10^-6 M. Five minutes later, glutamate is added to the medium and then the medium is replenished after exposure for 5 minutes. The protected and unprotected cultures are then examined and photographed at intervals between 30 min and 24 h.

hippocampal cells = assay: Protection of hippocampal cells in vitro against acute glutamate damage; type: cell-based, rat; design: key: ++: severe damage; +: partial protection; -: no damage; details: 24 h after 5 min exposure to glutamate
Method: as §4, §5

site of TCP = assay: Affinity for the TCP site, competition with (^3 H)TCP on rat brain homogenates; type: binding; details: rat brain homogenate, pH 7.7, 25° C., 1 nmole tritiated ligand; read-out: ^3 HTCP IC50
[4] = system: cortical and hippocampal neurons; assay: Protection of cortical and hippocampal neuron cultures against glutamate; type: cell-based, rat
Method: as §4, §5

[5] = system: pyramidal cells Ca3 of Ammon's horn; assay: Cerebral aging in mice, histology of the hippocampus; type: in vivo; details: 5 mg/kg intraperitoneal at 23rd, 24th and 25th months; 26th month
Method: as §1, §2, §3

[6] = Subcutaneous LD50 in the rat; details: in vivo, sc

| Compound | IC50 [1] | ^3 HDA/^3 H-TCP [1] | ED50 (Swiss mice) | IC50 [2] | number of neurons which survived after 2 months culturing [3] | IC50 (receptor of the opiates) | IC50 (site of PCP) | IC50 (site of TCP) | ^3 HQNB/^3 HTCP [2] | LD50 [6] | also measured |
| --- | --- | --- | --- | --- | --- | --- | --- | --- | --- | --- | --- |
| C[C@@H]1CCCC[C@]1(c1cccs1)N1CCCCC1 (relative stereo) [compound 9, c-methyl-2-r-(piperidino-1)-1 (thienyl-2)-1 cyclohexane] | 7.9 µM | 415 | 3.5 mg/kg | 12 µM | more than 500 neurons/mm^2 | 5 µM |  |  |  |  | cerebral aging experiment repeated in place of TCP (Purkinje cells; cerebellum and hippocampus, compared with TCP): equivalent results were obtained; neuron survival, comparison in words ([3]; compound 9 at 5 μmole/liter, 2 months culturing): comparable result to that of TCP at 20 μmole/l and that of MK801 at 5 μmole/l; also recorded: effectiveness equal to that of the reference compound MK801 |
| C1=CCN(C2(c3cccs3)CCCCC2)CC1 [Compound No. 2, ((tetrahydro-1,2,5,6pyridino)-1)-1 (thienyl-2)-1 cyclohexane] | 4.7 µM |  | 4 mg/kg | 25 µM |  |  | 0.017 µM | 0.026 µM | 961 |  | Treatment of cortical cells, damage (cortical cells; 0.2 μM): ++; Treatment of cortical cells, damage (cortical cells; 2 μM): +; Treatment of cortical cells, damage (cortical cells; 20 μM): -; Treatment of cortical cells, damage (cortical cells; 200 μM): -; Treatment of hippocampal cells, damage (hippocampal cells; 0.2 μM): ++; Treatment of hippocampal cells, damage (hippocampal cells; 2 μM): +; Treatment of hippocampal cells, damage (hippocampal cells; 20 μM): -; Treatment of hippocampal cells, damage (hippocampal cells; 200 μM): -; protection of the cultures against glutamate ([4]; 0.2 μmole, 24 h after 5 min exposure to glutamate): no protection; protection of the cultures against glutamate ([4]; 2 μmole, 24 h after 5 min exposure to glutamate): only a limited protection; damage of the cultures by glutamate ([4]; 20 μmole, 24 h after 5 min exposure to glutamate): only very slightly damaged; appearance of hippocampal and cortical cell cultures ([4]; after 24 h, glutamate exposure): appear healthy in the same way as the control cells; acute swelling ([4]; glutamate exposure): less intense; necrosis ([4]; glutamate exposure): completely blocked |
| c1csc(C2(N3CCCCC3)CCCCC2)c1 [TCP, ((2-thienyl)-1 cyclohexyl)-N-piperidine, reference compound] | 1.6 µM | 25.39 | 2.3 mg/kg | 21 µM | more than 500 neurons/mm^2 | 11 µM | 0.026 µM | 0.063 µM | 333 |  | rarefication of the Purkinje cells at the cerebellum versus untreated (Purkinje cells; 5 mg/kg intraperitoneal at 23rd, 24th and 25th months, 26th month): much less significant; ^3 HDHM/^3 HTCP (receptor of the opiates; ratio of IC50): 74.6; rarefaction of the pyramidal cells Ca3 of Ammon's horn versus untreated [5]: much less marked |
| OCC1CCCN(C2(c3cccs3)CCCCC2)C1 (centres unmarked) [compound 3, [(hydroxymethyl-3piperidino)-1]-1 (thienyl-2)-1 cyclohexane] |  |  | 0.68 mg/kg | 90 µM |  |  | 0.7 µM |  | 128 | > 60 mg/kg |  |
| OCC1CCCN(C2(c3ccccc3)CCCCC2)C1 (centres unmarked) [compound 4, [(hydroxymethyl-3piperidino)-1]-1phenyl-1 cyclohexane] |  |  | 1.8 mg/kg | 100 µM |  |  | 1 µM |  | 100 | > 60 mg/kg |  |

Reference: patent US5179109A (priority 1988, dated 1993)
